Experimental data taken from patent US11173151B2, “Substituted triazole derivatives and uses thereof” (BAYER AKTIENGESELLSCHAFT, priority 2017, dated 2021).
Where two headings read alike, the source gives them in different places.

Assays:
human V1a receptor = target: T1, human V1a receptor (Homo sapiens, UniProt P37288); assay: Cellular in vitro assay for determining vasopressin receptor activity, V1a receptor cell line (CHO, aequorin luminescence); assay type: cell-based; conditions: for IC50: CHO cell line transfected with human V1a receptor, [Arg]-vasopressin at EC50 concentration, read-out: IC50 hV1a; for ratio IC50 hV2/hV1a: selectivity ratio IC50 hV2 / IC50 hV1a
T1 construct: expressed in transfected cells; host or cells: CHO K1 (ATCC), also stably transfected with a modified aequorin
T1 sequence (P37288 whole entry): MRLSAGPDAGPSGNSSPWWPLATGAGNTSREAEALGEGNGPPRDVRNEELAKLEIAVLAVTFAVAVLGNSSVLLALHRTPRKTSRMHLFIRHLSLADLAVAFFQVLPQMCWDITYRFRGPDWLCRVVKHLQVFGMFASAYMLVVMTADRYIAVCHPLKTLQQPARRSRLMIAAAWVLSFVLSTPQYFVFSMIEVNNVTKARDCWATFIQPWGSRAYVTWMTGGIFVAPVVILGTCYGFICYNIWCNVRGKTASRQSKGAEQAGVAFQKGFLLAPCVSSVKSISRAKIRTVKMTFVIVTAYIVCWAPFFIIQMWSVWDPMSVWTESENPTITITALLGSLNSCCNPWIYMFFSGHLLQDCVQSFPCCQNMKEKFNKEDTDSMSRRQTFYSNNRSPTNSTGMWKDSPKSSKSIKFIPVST
Method in brief: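 CHO K1/aequorin cells, coelenterazine 5 μg/ml o/n; cpd 10 min; [Arg]-vasopressin at EC50; luminescence read immediately; IC50.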

human V2 receptor = target: T2, human V2 receptor (Homo sapiens, UniProt P30518); assay: Cellular in vitro assay for determining vasopressin receptor activity, V2 receptor cell line (CHO, CRE-luciferase); assay type: cell-based; conditions: CHO cell line transfected with human V2 receptor, [Arg8]-vasopressin at EC50 concentration, read-out: IC50 hV2
T2 construct: expressed in transfected cells; host or cells: CHO K1 (ATCC) expressing firefly luciferase under a CRE-responsive promoter
T2 sequence (P30518 whole entry): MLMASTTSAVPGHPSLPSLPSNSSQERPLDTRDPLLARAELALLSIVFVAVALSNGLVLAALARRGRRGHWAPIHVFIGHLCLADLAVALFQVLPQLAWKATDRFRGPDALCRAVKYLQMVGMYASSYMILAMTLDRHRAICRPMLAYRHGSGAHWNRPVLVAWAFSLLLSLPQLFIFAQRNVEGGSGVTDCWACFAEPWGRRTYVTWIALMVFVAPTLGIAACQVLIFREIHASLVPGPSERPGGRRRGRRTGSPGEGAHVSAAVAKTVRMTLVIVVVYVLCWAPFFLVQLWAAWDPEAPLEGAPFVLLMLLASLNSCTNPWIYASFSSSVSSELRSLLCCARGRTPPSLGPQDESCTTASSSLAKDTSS

SMILES	IC50 (human V1a receptor) [nM]	ratio IC50 hV2/hV1a (human V1a receptor)	IC50 (human V2 receptor) [nM]	IC50 (human V2 receptor; 3 hours) [nM]
O=C(N[C@H]1C[C@H]1F)c1cccnc1-n1nc(Cn2nc(-c3ccc(Cl)cc3)n(C[C@H](O)C(F)(F)F)c2=O)nc1C(=O)N1CCS(=O)(=O)CC1 (racemic) [Example 533, 2-{3-({3-(4-Chlorophenyl)-5-oxo-4-[(2S)-3,3,3-trifluoro-2-hydroxypropyl]-4,5-dihydro-1H-1,2,4-triazol-1-yl}methyl)-5-[(1,1-dioxidothiomorpholin-4-yl)carbonyl]-1H-1,2,4-triazol-1-yl}-N-[2-fluorocyclopropyl]pyridine-3-carboxamide]	146	21.8	3180	–
CC(C)(N)CNC(=O)c1nc(Cn2nc(-c3ccc(Cl)cc3)n(C[C@H](O)C(F)(F)F)c2=O)nn1-c1cnccc1C(=O)N[C@H]1C[C@H]1F (racemic) [Example 535, 3-{5-[(2-amino-2-methylpropyl)carbamoyl]-3-({3-(4-chlorophenyl)-5-oxo-4-[(2S)-3,3,3-trifluoro-2-hydroxypropyl]-4,5-dihydro-1H-1,2,4-triazol-1-yl}methyl)-1H-1,2,4-triazol-1-yl}-N-[2-fluorocyclopropyl]pyridine-4-carboxamide]	82.5	56.0	4620	–
O=C(Nc1cccnc1-n1cnc(Cn2nc(-c3ccc(Cl)cc3)n(C[C@H](O)C(F)(F)F)c2=O)n1)C1CC1(F)F (single isomer, unassigned) [Example 42]	23	27.0	–	620
O=C(Nc1cccnc1-n1cnc(Cn2nc(-c3ccc(Cl)cc3)n(C[C@H](O)C(F)(F)F)c2=O)n1)C1CCS(=O)(=O)C1 (single isomer, unassigned) [Example 51]	5	153.0	–	765
O=C(Nc1cccnc1-n1cnc(Cn2nc(-c3ccc(Cl)cc3)n(C[C@H](O)C(F)(F)F)c2=O)n1)C1CC1F (single isomer, unassigned) [Example 55]	3.65	190.4	–	695
O=C(Nc1cccnc1-n1cnc(Cn2nc(-c3ccc(Cl)cc3)n(C[C@H](O)C(F)(F)F)c2=O)n1)C1CC1F (single isomer, unassigned) [Example 56]	4.4	92.0	–	405
O=C(Nc1cccnc1-n1cnc(Cn2nc(-c3ccc(Cl)cc3)n(C[C@H](O)C(F)(F)F)c2=O)n1)C1CC1F (single isomer, unassigned) [Example 61]	4.35	111.5	–	485
O=C(Nc1ncccc1-n1cnc(Cn2nc(-c3ccc(Cl)cc3)n(C[C@H](O)C(F)(F)F)c2=O)n1)C1CC1F (single isomer, unassigned) [Example 78]	19.5	187.2	–	3650
O=C(Nc1ncccc1-n1cnc(Cn2nc(-c3ccc(Cl)cc3)n(C[C@H](O)C(F)(F)F)c2=O)n1)C1CC1F (single isomer, unassigned) [Example 86]	4.5	311.1	–	1400
O=C1CCC(NC(=O)c2ccccc2-n2cnc(Cn3nc(-c4ccc(Cl)cc4)n(CC(O)C(F)(F)F)c3=O)n2)CN1 (single isomer, unassigned) [Example 192, 2-[3-({3-(4-Chlorophenyl)-5-oxo-4-[3,3,3-trifluoro-2-hydroxypropyl]-4,5-dihydro-1H-1,2,4-triazol-1-yl}methyl)-1H-1,2,4-triazol-1-yl]-N-[6-oxopiperidin-3-yl]benzamide]	74.5	98.7	–	7350
CC(C)(N)CNc1ccncc1-n1cnc(Cn2nc(-c3ccc(Cl)cc3)n(C[C@H](O)C(F)(F)F)c2=O)n1 [Example 1, 2-[(1-{4-[(2-Amino-2-methylpropyl)amino]pyridin-3-yl}-1H-1,2,4-triazol-3-yl)methyl]-5-(4-chlorophenyl)-4-[(2S)-3,3,3-trifluoro-2-hydroxypropyl]-2,4-dihydro-3H-1,2,4-triazol-3-one]	1950	4.0	–	7870
NC1(CNc2ccncc2-n2cnc(Cn3nc(-c4ccc(Cl)cc4)n(C[C@H](O)C(F)(F)F)c3=O)n2)CC1 [Example 3, 2-{[1-(4-{[(1-Aminocyclopropyl)methyl]amino}pyridin-3-yl)-1H-1,2,4-triazol-3-yl]methyl}-5-(4-chlorophenyl)-4-[(2S)-3,3,3-trifluoro-2-hydroxypropyl]-2,4-dihydro-3H-1,2,4-triazol-3-one]	1220	0.6	–	730
O=c1n(Cc2ncn(-c3cnccc3NCC3(O)CC3)n2)nc(-c2ccc(Cl)cc2)n1C[C@H](O)C(F)(F)F [Example 4, 5-(4-Chlorophenyl)-2-{[1-(4-{[(1-hydroxycyclopropyl)methyl]amino}pyridin-3-yl)-1H-1,2,4-triazol-3-yl]methyl}-4-[(2S)-3,3,3-trifluoro-2-hydroxypropyl]-2,4-dihydro-3H-1,2,4-triazol-3-one]	115	1.1	–	125

Further molecules by falling IC50 (human V1a receptor), results first:

IC50 (human V1a receptor) [nM]	ratio IC50 hV2/hV1a (human V1a receptor)	IC50 (human V2 receptor) [nM]	IC50 (human V2 receptor; 3 hours) [nM]	SMILES
585	0.4	–	210	CC(C)(O)CNc1ccncc1-n1cnc(Cn2nc(-c3ccc(Cl)cc3)n(C[C@H](O)C(F)(F)F)c2=O)n1 [Example 2, 5-(4-Chlorophenyl)-2-[(1-{4-[(2-hydroxy-2-methylpropyl)amino]pyridin-3-yl}-1H-1,2,4-triazol-3-yl)methyl]-4-[(2S)-3,3,3-trifluoro-2-hydroxypropyl]-2,4-dihydro-3H-1,2,4-triazol-3-one]
80	38.8	–	3100	O=C1CCC(NC(=O)c2ccccc2-n2cnc(Cn3nc(-c4ccc(Cl)cc4)n(CC(O)C(F)(F)F)c3=O)n2)CN1 (single isomer, unassigned) [Example 193, 2-[3-({3-(4-Chlorophenyl)-5-oxo-4-[3,3,3-trifluoro-2-hydroxypropyl]-4,5-dihydro-1H-1,2,4-triazol-1-yl}methyl)-1H-1,2,4-triazol-1-yl]-N-[6-oxopiperidin-3-yl]benzamide]
12	195.8	–	2350	O=C(Nc1ncccc1-n1cnc(Cn2nc(-c3ccc(Cl)cc3)n(C[C@H](O)C(F)(F)F)c2=O)n1)C1CC1F (single isomer, unassigned) [Example 77]
11.5	173.9	–	2000	O=C(Nc1cccnc1-n1cnc(Cn2nc(-c3ccc(Cl)cc3)n(C[C@H](O)C(F)(F)F)c2=O)n1)C1CCS(=O)(=O)C1 (single isomer, unassigned) [Example 52]
10.5	52.7	–	553	O=C(Nc1ccncc1-n1cnc(Cn2nc(-c3ccc(Cl)cc3)n(C[C@H](O)C(F)(F)F)c2=O)n1)[C@@H]1C[C@@H]1F (single isomer, unassigned) [Example 35]
5.85	36.5	–	213	O=C(Nc1cccnc1-n1cnc(Cn2nc(-c3ccc(Cl)cc3)n(C[C@H](O)C(F)(F)F)c2=O)n1)C1CC1(F)F (single isomer, unassigned) [Example 43]
4.25	208.2	–	885	O=C(Nc1cccnc1-n1cnc(Cn2nc(-c3ccc(Cl)cc3)n(C[C@H](O)C(F)(F)F)c2=O)n1)C1CC1F (single isomer, unassigned) [Example 60]
